Experimental data from US11318214B2, “Iron oxide mesoporous microparticle drug carrier” (National Guard Health Affairs, priority 2020, dated 2022).

Experiments:
[1] = Drug loading onto IO-MMMs (UV-vis); type: physicochemical; conditions: for amount of drug loaded / loading efficiency: maximal loading onto IO-MMMs; for loading efficiency: absorption spectroscopy
Description: 1 mL aqueous dispersion of IO-MMMs (1.0 mg/mL) and aqueous drug solutions (250 μg/mL) were gently shaken on a rotary shaker for 36 h to enable maximal drug loading. The particle dispersions were then isolated via centrifugation (4500 rpm, 10 min), washed repeatedly with water until no drug was detected in the supernatant by UV-vis, and finally redispersed in water to form stable aqueous dispersions of drug@IO-MMMs. In case of Tam and Daun loading, Tam was first loaded followed by Daun to afford Daun/Tam@IO-MMMs (165 μg/mL Tam; 235 μg/mL Daun). Loading efficiencies were determined by UV-Vis spectroscopy as depicted below. […] The loading efficiency was calculated as: Loading Efficiency=(W1/W0)×100, where W1 is the amount of drug loaded onto the particles, and W0 is the amount of drug in the initial solution. The amount of drug loaded onto IO-MMMs was calculated from the difference between the initial drug concentration and the drug concentration left in the supernatant.

[2] = In vitro drug release in PBS buffer at two pH values; type: physicochemical; conditions: from IO-MMM, slightly acidic pH of 4.5, after 48 h, 37° C.
Description: In a typical study, 5 mg of drug@IO-MMMs were suspended in 1 mL PBS buffer at two different pH values (pH=7.4 and pH=4.5) and gently rotated at 37° C. in an oven provided with a precise control in the temperature within 0.01° C. The concentration of drugs in the supernatant was determined at fixed time intervals by UV-vis spectroscopy. At specific time points, supernatant aliquots obtained by centrifugation were taken from each tube, measured and returned to their respective tubes after UV-vis measurements. The drug concentration could be directly calculated from the measured absorbance. Triplicate aliquots were run for each time interval, and average values plotted. The percent drug release was calculated using the equation below: % Drug Release=(Abs(t) of released drug/Abs(t0))×100.

[3] = estimated; cited from earlier work

amount of drug loaded [1] | total drug released [2] | loading efficiencies depending on the initial drug concentrations used ([1]; onto IO-MMMs) | SMILES | loading efficiency [1] [%] | molecular size [3] [nm]
≤ 165 μg/mg of particles | ~80% | 66-83% | CC/C(=C(\c1ccccc1)c1ccc(OCCN(C)C)cc1)c1ccccc1 [Tam, Tamoxifen] | ≤ 83 | –
≤ 227 μg/mg of particles | about 40% | – | COc1cccc2c1C(=O)c1c(O)c3c(c(O)c1C2=O)C[C@@](O)(C(=O)CO)C[C@@H]3O[C@H]1C[C@H](N)[C@H](O)[C@H](C)O1 [Dox, Doxorubicin] | – | ~1.37

SMILES | amount of drug loaded [1] | total drug released [2] | loading efficiencies depending on the initial drug concentrations used ([1]; onto IO-MMMs) | loading efficiency [1] [%] | molecular size [3] [nm]
COc1cccc2c1C(=O)c1c(O)c3c(c(O)c1C2=O)C[C@@](O)(C(C)=O)C[C@@H]3O[C@H]1C[C@H](N)[C@H](O)[C@H](C)O1 [Daun, Daunorubicin] | ≤ 235 μg/mg of particles | ~50% | – | ≤ 94 | –
